Reference: US20050232975A1, “Composition and method to improve quality and yield of meat products” (priority 2002, published 2005)

Key:
Format in all cases: in vivo
[1] = Vitamin C in the blood after oral administration to cattle
Experimental: Applicants have learned that oral administration of Vitamin C to cattle results in measurable Vitamin C in the blood in about 45 minutes. These blood levels reach a maximum level between about 45 minutes and about 2 hours. In certain embodiments, Applicants orally administer their composition to a meat-producing animal about 45 minutes prior to harvest. In certain embodiments, Applicants orally administer their composition to a meat-producing animal about 2 hours prior to harvest. In certain embodiments, Applicants orally administer their composition to a meat-producing animal about 6 hours prior to harvest. In certain embodiments, Applicants orally administer their composition to a meat-producing animal about 18 hours prior to harvest. In certain embodiments, Applicants orally administer their composition to a meat-producing animal about 24 hours prior to harvest. In certain embodiments, Applicants orally administer their composition to a meat-producing animal about 48 hours prior to harvest

[2] = test system: beef cattle; assay: Example I: water retention (drip loss, moisture, free/bound/immobile water) of meat cuts after one-time oral administration to beef cattle pre-harvest; set-up: Total moisture: unit not given here; settings: about 6 hours prior to harvest
Experimental: To study the dose/response efficacy of a one-time administration of Vitamin C to beef cattle on the water retention of various cuts of meat prepared post-harvest, Applicants' studied four (4) treatments. Those treatments were is administered orally to 4 head of cattle about 6 hours prior to harvest. In a first control treatment, no Vitamin C was administered. In a second treatment, the animal's feed included about 50 grams of a phosphorylated Vitamin C sold in commerce by Roche Vitamins, Inc. under the name Rovimix® Stay-C®. In a third treatment, the animal's feed included about 100 grams of Rovimix® Stay-C®. In a fourth treatment, the animal's feed included about 150 grams of Rovimix® Stay-C®. Table I summarizes the results of this Example I. In treatments 2, 3, and 4, the phosphorylated Vitamin C was disposed in about 200 grams of grapefruit pulp. That Vitamin C/grapefruit pulp was orally administered to each of the cattle as a one-time drench. In treatment 1, the control cattle were administered the normal diet. By “LD,” Applicants mean meat products comprising the Longissimus dorsi muscle. These cuts are sold in commerce as, for example, strip loins. By “SM,” Applicants mean meat products comprising the Semimembranosus/adductor muscle. These cuts are sold in commerce as, for example, top round or inside round. By “TRI,” Applicants mean products comprising the triceps brachii muscle sometimes called the shoulder clod. These cuts are sold in commerce as, for example, beef roasts.

[3] = test system: beef cattle; assay: Example II: pH of meat cuts post-harvest after one-time oral administration to beef cattle pre-harvest; settings: about 6 hours prior to harvest
Experimental: To study the dose/response efficacy of a one-time administration of Vitamin C to beef cattle on the pH of various cuts of meat prepared post-harvest, Applicants' studied four (4) treatments. Those treatments were is administered orally to 4 head of cattle about 6 hours prior to harvest. In a first control treatment, no Vitamin C was administered. In a second treatment, the animal's feed included about 50 grams of a phosphorylated Vitamin C sold in commerce by Roche Vitamins, Inc. under the name Rovimix® Stay-C®. In a third treatment, the animal's feed included about 100 grams of Rovimix® Stay-C®. In a fourth treatment, the animal's feed included about 150 grams of Rovimix® Stay-C®.
In treatments 2, 3, and 4, the phosphorylated Vitamin C was disposed in about 200 grams of grapefruit pulp. That Vitamin C/grapefruit pulp was orally administered to each of the cattle as a one-time bolus. In treatment 1, the control cattle were administered their normal diet.

[4] = 0 min after harvest, 50 grams oral
[5] = 0 min after harvest, 100 grams oral
[6] = 0 min after harvest, 150 grams oral
[7] = 30 min after harvest, 50 grams oral
[8] = 30 min after harvest, 100 grams oral
[9] = 30 min after harvest, 150 grams oral
[10] = 60 min after harvest, 50 grams oral
[11] = 60 min after harvest, 100 grams oral
[12] = 60 min after harvest, 150 grams oral
[13] = 90 min after harvest, 50 grams oral
[14] = 90 min after harvest, 100 grams oral
[15] = 90 min after harvest, 150 grams oral
[16] = 120 min after harvest, 50 grams oral
[17] = 120 min after harvest, 100 grams oral
[18] = 120 min after harvest, 150 grams oral
[19] = 150 min after harvest, 50 grams oral
[20] = 150 min after harvest, 100 grams oral
[21] = 150 min after harvest, 150 grams oral
[22] = 180 min after harvest, 50 grams oral
[23] = 180 min after harvest, 100 grams oral
[24] = 180 min after harvest, 150 grams oral

time to measurable Vitamin C in the blood ([1]; bovine, in vivo, po): about 45 minutes | time at which blood levels reach a maximum level ([1]; oral administration to cattle): about 45 minutes and about 2 hours
SMILES: O=C1O[C@H]([C@@H](O)CO)C(O)=C1O [Vitamin C, L-ascorbic acid]
Percent moisture ([2]; LD cut, 50 grams oral): 0.7021 | Total moisture ([2]; LD cut, 50 grams oral): 384.78 | Total moisture ([2]; LD cut, 100 grams oral): 366.33 | Bound water ([2]; LD cut, 150 grams oral): 78.6805% | Free water ([2]; LD cut, 150 grams oral): 21.3195% | Immobile water ([2]; LD cut, 150 grams oral): 57.3609% | Total moisture ([2]; LD cut, 150 grams oral): 354.2 | Bound water ([2]; SM cut, 50 grams oral): 80.5196% | Free water ([2]; SM cut, 50 grams oral): 19.4804% | Immobile water ([2]; SM cut, 50 grams oral): 61.0392% | Percent moisture ([2]; SM cut, 50 grams oral): 0.6522 | Total moisture ([2]; SM cut, 50 grams oral): 353.36 | Bound water ([2]; SM cut, 100 grams oral): 83.959% | Free water ([2]; SM cut, 100 grams oral): 16.041% | Immobile water ([2]; SM cut, 100 grams oral): 67.918% | Total moisture ([2]; SM cut, 100 grams oral): 365.7 | Bound water ([2]; SM cut, 150 grams oral): 75.6853% | Free water ([2]; SM cut, 150 grams oral): 24.3147% | Immobile water ([2]; SM cut, 150 grams oral): 51.3706% | Total moisture ([2]; SM cut, 150 grams oral): 371.99 | Bound water ([2]; TRI cut, 50 grams oral): 77.269% | Free water ([2]; TRI cut, 50 grams oral): 22.731% | Immobile water ([2]; TRI cut, 50 grams oral): 54.5381% | Percent moisture ([2]; TRI cut, 50 grams oral): 0.7019 | Total moisture ([2]; TRI cut, 50 grams oral): 376.45 | Total moisture ([2]; TRI cut, 100 grams oral): 361.8 | Bound water ([2]; TRI cut, 150 grams oral): 81.0096% | Free water ([2]; TRI cut, 150 grams oral): 18.9904% | Immobile water ([2]; TRI cut, 150 grams oral): 62.0192% | Total moisture ([2]; TRI cut, 150 grams oral): 399.11 | Measured pH Of Beef Roast [3, 4]: 6.82 | Measured pH Of Strip Loin [3, 4]: 6.78 | Measured pH Of Top Round Cuts [3, 4]: 6.70 | Measured pH Of Beef Roast [3, 5]: 6.73 | Measured pH Of Strip Loin [3, 5]: 6.78 | Measured pH Of Top Round Cuts [3, 5]: 6.70 | Measured pH Of Beef Roast [3, 6]: 6.77 | Measured pH Of Strip Loin [3, 6]: 6.76 | Measured pH Of Top Round Cuts [3, 6]: 6.64 | Measured pH Of Beef Roast [3, 7]: 6.41 | Measured pH Of Strip Loin [3, 7]: 6.45 | Measured pH Of Top Round Cuts [3, 7]: 6.46 | Measured pH Of Beef Roast [3, 8]: 6.43 | Measured pH Of Strip Loin [3, 8]: 6.45 | Measured pH Of Top Round Cuts [3, 8]: 6.44 | Measured pH Of Beef Roast [3, 9]: 6.44 | Measured pH Of Strip Loin [3, 9]: 6.36 | Measured pH Of Top Round Cuts [3, 9]: 6.47 | Measured pH Of Beef Roast [3, 10]: 6.19 | Measured pH Of Strip Loin [3, 10]: 6.22 | Measured pH Of Top Round Cuts [3, 10]: 6.12 | Measured pH Of Beef Roast [3, 11]: 6.19 | Measured pH Of Strip Loin [3, 11]: 6.25 | Measured pH Of Top Round Cuts [3, 11]: 6.36 | Measured pH Of Beef Roast [3, 12]: 6.26 | Measured pH Of Strip Loin [3, 12]: 6.22 | Measured pH Of Top Round Cuts [3, 12]: 6.20 | Measured pH Of Beef Roast [3, 13]: 6.11 | Measured pH Of Strip Loin [3, 13]: 6.00 | Measured pH Of Top Round Cuts [3, 13]: 5.84 | Measured pH Of Beef Roast [3, 14]: 6.05 | Measured pH Of Strip Loin [3, 14]: 6.02 | Measured pH Of Top Round Cuts [3, 14]: 6.05 | Measured pH Of Beef Roast [3, 15]: 6.06 | Measured pH Of Strip Loin [3, 15]: 6.07 | Measured pH Of Top Round Cuts [3, 15]: 5.91 | Measured pH Of Beef Roast [3, 16]: 6.10 | Measured pH Of Strip Loin [3, 16]: 5.83 | Measured pH Of Top Round Cuts [3, 16]: 5.75 | Measured pH Of Beef Roast [3, 17]: 5.96 | Measured pH Of Strip Loin [3, 17]: 5.78 | Measured pH Of Top Round Cuts [3, 17]: 5.81 | Measured pH Of Beef Roast [3, 18]: 5.91 | Measured pH Of Strip Loin [3, 18]: 5.88 | Measured pH Of Top Round Cuts [3, 18]: 5.78 | Measured pH Of Beef Roast [3, 19]: 6.01 | Measured pH Of Strip Loin [3, 19]: 5.75 | Measured pH Of Top Round Cuts [3, 19]: 5.60 | Measured pH Of Beef Roast [3, 20]: 5.89 | Measured pH Of Strip Loin [3, 20]: 5.76 | Measured pH Of Top Round Cuts [3, 20]: 5.59 | Measured pH Of Beef Roast [3, 21]: 5.80 | Measured pH Of Strip Loin [3, 21]: 5.66 | Measured pH Of Top Round Cuts [3, 21]: 5.67 | Measured pH Of Beef Roast [3, 22]: 5.87 | Measured pH Of Strip Loin [3, 22]: 5.67 | Measured pH Of Top Round Cuts [3, 22]: 5.53 | Measured pH Of Beef Roast [3, 23]: 5.83 | Measured pH Of Strip Loin [3, 23]: 5.59 | Measured pH Of Top Round Cuts [3, 23]: 5.55 | Measured pH Of Beef Roast [3, 24]: 5.79 | Measured pH Of Strip Loin [3, 24]: 5.50 | Measured pH Of Top Round Cuts [3, 24]: 5.57
